Patent US11014934B2, “Antiseptic drug” (AO “TATKHIMFARMPREPARATY”, priority 2017, dated 2021)
Like-named read-outs stand apart in the source and are kept apart here.

Key:
Test in all cases: MIC, serial dilutions in Müller-Hinton broth
Type in all cases: cell-based
A. baumannii 1440 = system: A. baumannii 1440
Description: (§1) A comparative assessment of the spectrum of antibacterial action was carried out on archival and clinical strains of gram-positive and gram-negative microorganisms in accordance with the [Opredeleniye chuvstvitel'nosti mikroorganizmov k antibakterial'nym preparatam (Metodicheskiye ukazaniya MUK 4.2.1890-04). Utverzhdeny i vvedeny v deystviye Glavnym gosudarstvennym sanitarnym vrachom Rossiyskoy Federatsii G. G. Onishchenko 04.03.2004 g. Determination of the sensitivity of microorganisms to antibacterial drugs (Guidelines MUK 4.2.1890-04). Approved and put into effect by the Chief State Sanitary Doctor of the Russian Federation G. G. Onishchenko on 4 Mar. 2004].
(§2) The value of the minimum inhibitory concentration (MIC) was determined by the method of serial dilutions on Müller-Hinton broth using 96-well sterile plates. Two-fold dilutions of the test substances in a nutrient medium were prepared. The final concentrations were 1-128 ug/ml. The growth of cultures was assessed visually, comparing the growth of microorganisms in the presence of test compounds with the growth of culture without them. […] The first lowest concentration of the studied substance (from a series of consecutive dilutions), where bacterial growth is not visually determined, is considered to be the minimum inhibitory concentration (MIC). MIC was determined by the method of serial dilutions in broth with increment=2, so the differences of neighboring dilutions are not considered to be significant. In each experience there is a positive (broth with growing culture) and a negative (broth without growing culture) control.
(§3) To determine the MIC, 10 μl of culture medium was taken from those wells in which growth was not observed, and inoculation was performed on a dense Müller-Hinton broth. For the preparation of the inoculum, a pure, daily culture of gram-positive and gram-negative microorganisms grown on a dense nutrient medium was used. Nutrient medium is Müller-Hinton broth, which was prepared from dry media (Müller-Hinton broth, Acumedia, Baltimore), cultivation was carried out on agarized Müller-Hinton broth, including an additional 2% agar. The media were autoclaved at 121° C. for 15 minutes. In a sterile isotonic solution of sodium chloride, a suspension of microorganisms was prepared, adjusting the inoculum density to 0.5 according to the McFarland standard (1.5·10^8 CFU/ml). Then, the resulting inoculum was diluted to a concentration of 10^7 CFU/ml with Müller-Hinton broth. The inoculum was used within 15 minutes after preparation; the purity of the bacterial strains was monitored before each experiment.
(§4) 100 μl of Müller-Hinton broth was added to the wells of each plate; The tested substance was introduced into the first well at a concentration of 128 μg/ml in a volume of 100 μl and its concentration was adjusted to 0.5 μg/ml by consecutive two-fold dilution. Then, the prepared inoculum (100 μI) was added to each well, thereby diluting twice the concentration of the studied compounds. […] In addition, the purity of nutrient media and solvents was monitored. The plates were incubated in a thermostat at 37° C. for 24 hours. The growth of cultures was assessed visually, comparing the growth of microorganisms in the presence of test compounds with the growth of culture without them.
(§5) For the MIC was taken the minimum concentration of the studied compounds, providing complete suppression of the visible growth of the studied strains of microorganisms. The maximum value obtained in three independent experiments was taken as the MIC of the compound.

E. coli 1440 = system: E. coli 1440
Description: as §1, §2, §3, §4, §5

E. faecalis 26 = system: E. faecalis 26
Description: as §1, §2, §3, §4, §5

E. faecalis 3047 = system: E. faecalis 3047
Description: as §1, §2, §3, §4, §5

E. faecalis 3060 = system: E. faecalis 3060
Description: as §1, §2, §3, §4, §5

E. faecium 25 = system: E. faecium 25
Description: as §1, §2, §3, §4, §5

E. faecium 3028 = system: E. faecium 3028
Description: as §1, §2, §3, §4, §5

E.coli ATCC 25922 = system: E.coli ATCC 25922
Description: as §1, §2, §3, §4, §5

Kl. pneumoniae 1342 PR = system: Kl. pneumoniae 1342 PR
Description: as §1, §2, §3, §4, §5

Kl. pneumoniae 1435 PR = system: Kl. pneumoniae 1435 PR
Description: as §1, §2, §3, §4, §5

Kl. pneumoniae 1953 PR = system: Kl. pneumoniae 1953 PR
Description: as §1, §2, §3, §4, §5

Kl. pneumoniae 645 PR = system: Kl. pneumoniae 645 PR
Description: as §1, §2, §3, §4, §5

Kl. pneumoniae = system: Kl. pneumoniae
Description: as §1, §2, §3, §4, §5

Moraxella sp. 723 = system: Moraxella sp. 723
Description: as §1, §2, §3, §4, §5

Proteus spp. 17 = system: Proteus spp. 17
Description: as §1, §2, §3, §4, §5

Ps. aeruginosa 1913 PR = system: Ps. aeruginosa 1913 PR
Description: as §1, §2, §3, §4, §5

Ps. aeruginosa 1959 = system: Ps. aeruginosa 1959
Description: as §1, §2, §3, §4, §5

S. aureus 1065 MRSA = system: S. aureus 1065 MRSA
Description: as §1, §2, §3, §4, §5

S. aureus 1131 MRSA = system: S. aureus 1131 MRSA
Description: as §1, §2, §3, §4, §5

S. aureus 1173 MRSA = system: S. aureus 1173 MRSA
Description: as §1, §2, §3, §4, §5

S. aureus 983 MRSA = system: S. aureus 983 MRSA
Description: as §1, §2, §3, §4, §5

Stenotrophomonas spp. 9 = system: Stenotrophomonas spp. 9
Description: as §1, §2, §3, §4, §5

Work on CCCCCCCCCCCC[N+](C)(C)Cc1cnc(C[N+](C)(C)CCCCCCCCCCCC)c2c1COC(CC)O2 (stereo not drawn) [Compound I, 5,8-(Bis(methylene (N, N-dimethyl-N-dodecylammonium))-2-ethyl-4H-[1,3]dioxino [4,5-c]pyridiniumdichloride] yielded an MIC (A. baumannii 1440; Acinetobacter baumannii, A. baumannii 1440, inoculum 10^7 CFU/ml, read-out: MIC) of 8 µg/mL, an MIC (E. coli 1440; Escherichia coli, E. coli 1440, inoculum 10^7 CFU/ml, read-out: MIC) of 32 µg/mL and an MIC (E. faecalis 26; Enterococcus faecalis, E. faecalis 26, inoculum 10^7 CFU/ml, read-out: MIC) of 1 µg/mL. For the same compound, the MIC (E. faecalis 3047; Enterococcus faecalis, E. faecalis 3047, inoculum 10^7 CFU/ml, read-out: MIC) was 4 µg/mL, the MIC (E. faecalis 3060; Enterococcus faecalis, E. faecalis 3060, inoculum 10^7 CFU/ml, read-out: MIC) was 1 µg/mL and the MIC (E. faecium 25; Enterococcus faecium, E. faecium 25, inoculum 10^7 CFU/ml, read-out: MIC) was 0.03 µg/mL. The MIC (E. faecium 3028; Enterococcus faecium, E. faecium 3028, inoculum 10^7 CFU/ml, read-out: MIC) was 1 µg/mL, the MIC (E.coli ATCC 25922; Escherichia coli, ATCC25922, E.coli ATCC 25922, inoculum 10^7 CFU/ml, read-out: MIC) was 2 µg/mL and the MIC (Kl. pneumoniae 1342 PR; Klebsiella pneumoniae, Kl. pneumoniae 1342 PR, inoculum 10^7 CFU/ml, read-out: MIC) was 32 µg/mL. For the same compound, the MIC (Kl. pneumoniae 1435 PR; Klebsiella pneumoniae, Kl. pneumoniae 1435 PR, inoculum 10^7 CFU/ml, read-out: MIC) was 32 µg/mL, the MIC (Kl. pneumoniae 1953 PR; Klebsiella pneumoniae, Kl. pneumoniae 1953 PR, inoculum 10^7 CFU/ml, read-out: MIC) was 2 µg/mL and the MIC (Kl. pneumoniae 645 PR; Klebsiella pneumoniae, Kl. pneumoniae 645 PR, inoculum 10^7 CFU/ml, read-out: MIC) was 32 µg/mL. The MIC (Kl. pneumoniae; Klebsiella pneumoniae, Kl. pneumoniae, inoculum 10^7 CFU/ml, read-out: MIC) was 2 µg/mL, the MIC (Moraxella sp. 723; Moraxella sp. 723, inoculum 10^7 CFU/ml, read-out: MIC) was 4 µg/mL and the MIC (Proteus spp. 17; Proteus spp. 17, inoculum 10^7 CFU/ml, read-out: MIC) was 64 µg/mL. For the same compound, the MIC (Ps. aeruginosa 1913 PR; Pseudomonas aeruginosa, Ps. aeruginosa 1913 PR, inoculum 10^7 CFU/ml, read-out: MIC) was 64 µg/mL, the MIC (Ps. aeruginosa 1959; Pseudomonas aeruginosa, Ps. aeruginosa 1959, inoculum 10^7 CFU/ml, read-out: MIC) was 32 µg/mL and the MIC (S. aureus 1065 MRSA; Staphylococcus aureus, S. aureus 1065 MRSA, inoculum 10^7 CFU/ml, read-out: MIC) was 2 µg/mL. The MIC (S. aureus 1131 MRSA; Staphylococcus aureus, S. aureus 1131 MRSA, inoculum 10^7 CFU/ml, read-out: MIC) was 2 µg/mL, the MIC (S. aureus 1173 MRSA; Staphylococcus aureus, S. aureus 1173 MRSA, inoculum 10^7 CFU/ml, read-out: MIC) was 2 µg/mL and the MIC (S. aureus 983 MRSA; Staphylococcus aureus, S. aureus 983 MRSA, inoculum 10^7 CFU/ml, read-out: MIC) was 8 µg/mL. It also gave an MIC (Stenotrophomonas spp. 9; Stenotrophomonas spp. 9, inoculum 10^7 CFU/ml, read-out: MIC) of 8 µg/mL.

Work on CCCCCCCCCCCCCC(=O)NCCC[N+](C)(C)Cc1ccccc1.O.[Cl-] [Miramistin, benzyldimethyl [3-(myristoylamino)propyl]-ammonium chloride monohydrate] yielded an MIC (A. baumannii 1440; Acinetobacter baumannii, 1440) of 64 µg/mL, an MIC (E. coli 1440; Escherichia coli, 1440) of 64 µg/mL and an MIC (E. faecalis 26; Enterococcus faecalis, 26) of 4 µg/mL. It also gave an MIC (E. faecalis 3047; Enterococcus faecalis, 3047) of 2 µg/mL, an MIC (E. faecalis 3060; Enterococcus faecalis, 3060) of 8 µg/mL and an MIC (E. faecium 25; Enterococcus faecium, 25) of less than 0.5 µg/mL. It also gave an MIC (E. faecium 3028; Enterococcus faecium, 3028) of 16 µg/mL, an MIC (E.coli ATCC 25922; Escherichia coli, ATCC25922) of 4 µg/mL and an MIC (Kl. pneumoniae 1342 PR; Klebsiella pneumoniae, 1342PR) of 64 µg/mL. The MIC (Kl. pneumoniae 1435 PR; Klebsiella pneumoniae, 1435PR) was 64 µg/mL, the MIC (Kl. pneumoniae 1953 PR; Klebsiella pneumoniae, 1953PR) was 64 µg/mL and the MIC (Kl. pneumoniae 645 PR; Klebsiella pneumoniae, 645PR) was 64 µg/mL. It also gave an MIC (Kl. pneumoniae; Klebsiella pneumoniae) greater than 64 µg/mL, an MIC (Moraxella sp. 723; Moraxella, SP.723) of 32 µg/mL and an MIC (Proteus spp. 17) greater than 64 µg/mL. For the same compound, the MIC (Ps. aeruginosa 1913 PR; Pseudomonas aeruginosa, 1913PR) was greater than 64 µg/mL, the MIC (Ps. aeruginosa 1959; Pseudomonas aeruginosa, 1959) was 64 µg/mL and the MIC (S. aureus 1065 MRSA; Staphylococcus aureus, MRSA) was 8 µg/mL. The MIC (S. aureus 1131 MRSA; Staphylococcus aureus, MRSA) was 4 µg/mL, the MIC (S. aureus 1173 MRSA; Staphylococcus aureus, MRSA) was 16 µg/mL and the MIC (S. aureus 983 MRSA; Staphylococcus aureus, MRSA) was 4 µg/mL. The MIC (Stenotrophomonas spp. 9; Stenotrophomonas, SPP.9) was 64 µg/mL.

Compound “alkyldimethyl(phenylmethyl) ammonium chloride [Benzalconium chloride]” has an MIC (A. baumannii 1440; A. baumannii 1440, inoculum 10^7 CFU/ml) of 32 µg/mL, an MIC (E. coli 1440; E. coli 1440, inoculum 10^7 CFU/ml) of 32 µg/mL and an MIC (E. faecalis 26; E. faecalis 26, inoculum 10^7 CFU/ml) of 0.5 µg/mL. The MIC (E. faecalis 3047; E. faecalis 3047, inoculum 10^7 CFU/ml) was 2 µg/mL, the MIC (E. faecalis 3060; E. faecalis 3060, inoculum 10^7 CFU/ml) was 4 µg/mL and the MIC (E. faecium 25; E. faecium 25, inoculum 10^7 CFU/ml) was less than 0.5 µg/mL. It also gave an MIC (E. faecium 3028; E. faecium 3028, inoculum 10^7 CFU/ml) of 4 µg/mL, an MIC (E.coli ATCC 25922; E.coli ATCC 25922, inoculum 10^7 CFU/ml) of 1 µg/mL and an MIC (Kl. pneumoniae 1342 PR; Kl. pneumoniae 1342 PR, inoculum 10^7 CFU/ml) of 32 µg/mL. For the same compound, the MIC (Kl. pneumoniae 1435 PR; Kl. pneumoniae 1435 PR, inoculum 10^7 CFU/ml) was 32 µg/mL, the MIC (Kl. pneumoniae 1953 PR; Kl. pneumoniae 1953 PR, inoculum 10^7 CFU/ml) was 16 µg/mL and the MIC (Kl. pneumoniae 645 PR; Kl. pneumoniae 645 PR, inoculum 10^7 CFU/ml) was 16 µg/mL. The MIC (Kl. pneumoniae; Kl. pneumoniae, inoculum 10^7 CFU/ml) was greater than 64 µg/mL, the MIC (Moraxella sp. 723; Moraxella sp. 723, inoculum 10^7 CFU/ml) was 4 µg/mL and the MIC (Proteus spp. 17; Proteus spp. 17, inoculum 10^7 CFU/ml) was 16 µg/mL. The MIC (Ps. aeruginosa 1913 PR; Ps. aeruginosa 1913 PR, inoculum 10^7 CFU/ml) was greater than 64 µg/mL, the MIC (Ps. aeruginosa 1959; Ps. aeruginosa 1959, inoculum 10^7 CFU/ml) was greater than 64 µg/mL and the MIC (S. aureus 1065 MRSA; S. aureus 1065 MRSA, inoculum 10^7 CFU/ml) was 4 µg/mL. The MIC (S. aureus 1131 MRSA; S. aureus 1131 MRSA, inoculum 10^7 CFU/ml) was 2 µg/mL, the MIC (S. aureus 1173 MRSA; S. aureus 1173 MRSA, inoculum 10^7 CFU/ml) was 8 µg/mL and the MIC (S. aureus 983 MRSA; S. aureus 983 MRSA, inoculum 10^7 CFU/ml) was 4 µg/mL. The MIC (Stenotrophomonas spp. 9; Stenotrophomonas spp. 9, inoculum 10^7 CFU/ml) was 4 µg/mL.
